Where two headings read alike, the source gives them in different places.
Experiments:
[1] = target: T1, human α1A-adrenoceptor (Homo sapiens, UniProt P35348); assay: [3H]prazosin whole-cell competition binding, CHO-α1A cells; conditions: for selectivity α1A vs 1D / selectivity α1A vs α1B: ratio, 1 = no selectivity for a subtype over another
T1 construct: CHO cells stably expressing either the full‐length human α1A, α1B, or α1D‐adrenoceptor
T1 sequence (P35348 1-466): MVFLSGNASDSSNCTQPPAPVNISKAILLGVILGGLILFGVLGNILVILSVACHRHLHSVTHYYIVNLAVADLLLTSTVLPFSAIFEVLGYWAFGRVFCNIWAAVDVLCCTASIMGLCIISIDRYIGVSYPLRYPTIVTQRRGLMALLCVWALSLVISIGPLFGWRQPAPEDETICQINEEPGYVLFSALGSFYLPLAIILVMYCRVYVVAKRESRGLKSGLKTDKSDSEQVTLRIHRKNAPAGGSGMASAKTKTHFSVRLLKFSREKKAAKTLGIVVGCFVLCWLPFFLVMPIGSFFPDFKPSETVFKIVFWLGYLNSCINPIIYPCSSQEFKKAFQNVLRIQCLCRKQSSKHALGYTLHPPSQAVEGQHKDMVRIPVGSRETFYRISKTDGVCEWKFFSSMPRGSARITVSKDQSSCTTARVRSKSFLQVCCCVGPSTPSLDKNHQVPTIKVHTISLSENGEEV

[2] = target: T2, full-length human α1D-adrenoceptor (Homo sapiens, UniProt P25100); assay: [3H]prazosin whole-cell competition binding, CHO-α1D cells
T2 sequence (P25100 1-572): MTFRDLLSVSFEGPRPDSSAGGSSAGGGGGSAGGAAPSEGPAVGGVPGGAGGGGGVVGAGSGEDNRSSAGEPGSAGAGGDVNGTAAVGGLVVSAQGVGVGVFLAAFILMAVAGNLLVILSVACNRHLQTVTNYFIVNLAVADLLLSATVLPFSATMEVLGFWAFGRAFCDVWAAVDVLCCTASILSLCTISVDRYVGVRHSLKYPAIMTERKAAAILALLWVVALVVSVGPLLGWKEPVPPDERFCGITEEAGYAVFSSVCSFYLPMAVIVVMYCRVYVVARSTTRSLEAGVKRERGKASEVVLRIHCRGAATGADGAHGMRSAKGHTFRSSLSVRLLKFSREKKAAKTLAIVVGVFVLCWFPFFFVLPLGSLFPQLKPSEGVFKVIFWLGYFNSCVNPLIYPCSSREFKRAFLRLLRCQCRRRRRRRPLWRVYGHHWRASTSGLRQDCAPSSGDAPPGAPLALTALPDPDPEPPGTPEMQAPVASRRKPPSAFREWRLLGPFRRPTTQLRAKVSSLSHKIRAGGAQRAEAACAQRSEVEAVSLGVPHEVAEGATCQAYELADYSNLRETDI

[3] = target: T3, human α1B-adrenoceptor (Homo sapiens, UniProt P35368); assay: [3H]prazosin whole-cell competition binding, CHO-α1B cells; conditions: for selectivity α1B vs α1D: ratio, 1 = no selectivity for a subtype over another; for Log KD α1B / Kd: single-component inhibition curve, given as log KD (negative), mean ± SE mean; for Kd: read-out: Log KD α1B (converted); for IC50: read-out: Log IC50 α1B (converted); for Log IC50 α1B: log IC50 bound
T3 construct: CHO cells stably expressing either the full‐length human α1A, α1B, or α1D‐adrenoceptor
T3 sequence (P35368 1-520): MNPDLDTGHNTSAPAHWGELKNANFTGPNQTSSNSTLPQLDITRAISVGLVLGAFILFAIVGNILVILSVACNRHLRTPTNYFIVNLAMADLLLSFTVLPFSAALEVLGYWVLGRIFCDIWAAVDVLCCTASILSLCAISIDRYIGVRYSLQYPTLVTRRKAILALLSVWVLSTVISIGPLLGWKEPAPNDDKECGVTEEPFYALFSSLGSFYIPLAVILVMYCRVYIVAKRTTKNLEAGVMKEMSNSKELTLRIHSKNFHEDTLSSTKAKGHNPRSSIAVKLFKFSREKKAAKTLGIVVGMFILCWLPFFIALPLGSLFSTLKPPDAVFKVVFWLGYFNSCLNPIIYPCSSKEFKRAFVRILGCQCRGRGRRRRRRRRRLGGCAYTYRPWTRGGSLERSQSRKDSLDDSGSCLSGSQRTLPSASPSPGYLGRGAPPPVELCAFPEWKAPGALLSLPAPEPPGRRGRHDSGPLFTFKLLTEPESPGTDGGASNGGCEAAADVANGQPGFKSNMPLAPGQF

[4] = single-component inhibition curve, given as log KD (negative), mean ± SE mean
[5] = ratio of KD values, higher α1A affinity, 1.0 under vs = none
[6] = ratio of KD values, printed under α1A = higher α1A affinity, 1.0 under vs = none
[7] = ratio of KD values, higher α1D affinity (site 1 KD)
[8] = selectivity ratio, 1 = no selectivity for a given receptor subtype over another
[9] = single-component inhibition curve, given as log KD (negative), mean ± SE mean, read-out: Log KD α1A (converted)
[10] = Log KD α1D, single-component inhibition curve, given as log KD (negative), mean ± SE mean
[11] = Log KD α1D (apparent), app: top concentration inhibited most but not all specific binding, curve extrapolated
[12] = log KD from 3H-prazosin whole cell binding, CHO cells, mean ± s.e.mean, read-out: Log KD α1A (converted)

Row | Selectivity ratio α1A vs α1D [1, 5] | Selectivity ratio α1A vs α1B [1, 6] | Selectivity ratio α1B vs α1D [2, 7] | selectivity α1B vs α1D [3] | Kd [3] | Compound | Log KD α1A [1, 4] | selectivity α1A vs 1D [1] | selectivity α1A vs α1B [1] | Kd [1, 9] | Kd [2, 10] | further results
1 |  |  |  |  |  | CN1[C@H]2C[C@H](OC(=O)[C@H](CO)c3ccccc3)C[C@@H]1[C@@H](O)C2 [Anisodamine] | −5.21 ± 0.03 |  |  |  |  | Log KD α1D [2, 4]: −4.21 ± 0.05; Log KD α1B (apparent) ([3]; app: top concentration inhibited most but not all specific binding, curve extrapolated): −3.45 ± 0.04^app
2 | 7.2 fold | 17 fold | 2.4 fold | 2.4 |  | CC1c2ccccc2CN1CC1=NCCN1 (stereo not drawn) [BRL44408] | −5.92 ± 0.09 |  |  |  |  | Log KD α1D [2, 4]: −5.06 ± 0.05; Log KD α1B [3]: −4.68 ± 0.07
3 |  |  |  |  |  | COc1cccc(OC)c1OCCNCC1CSc2ccccc2O1 (stereo not drawn) [Benoxathian] | −9.08 ± 0.05 |  |  |  |  | Log KD α1D site 1 ([2]; high-affinity component of two-component curve, control, used for selectivity): −7.91 ± 0.10; Log KD α1D site 2 ([2]; low-affinity component of two-component curve, control): −5.62 ± 0.19; % site 1 α1D ([2]; percentage of inhibition through first component, control): 62.5 ± 3.4% Site 1; % site 1 α1D ([2]; two-component inhibition curve, proportion of site 1): -7.91 ± 0.10 -5.62 ± 0.19 62.5 ± 3.4% site 1; Log KD α1B [3]: −7.32 ± 0.03
4 | 13 fold | 13 fold | 1.0 fold | 1.0 | 0.347 µM | CC(C)(Cc1c[nH]c2ccccc12)NCC(O)COc1ccccc1C#N (stereo not drawn) [Bucindolol] |  | 13.2 | 13 | 0.0269 µM | 0.355 µM | selectivities α1A vs α1B [1, 8]: 13; selectivities α1A vs α1D [1, 8]: 13; α1A affinity, fold lower than that for the human β1 adrenoceptor ([1]; β1 affinity from ref 53): 54 fold; α1A affinity, fold lower than that for the β2 adrenoceptor ([1]; β2 affinity from refs 52, 53): 263 fold
5 | 34 fold | 78 fold | 2.3 fold | 2.3 | 20.9 µM | CC(C)NCC(O)COc1cccc2[nH]c3ccccc3c12 (stereo not drawn) [Carazolol] |  |  |  | 0.269 µM |  | Kd [2, 11]: 9.12 µM

Row | Compound | Selectivity ratio α1A vs α1D [1, 5] | Selectivity ratio α1A vs α1B [1, 6] | Selectivity ratio α1B vs α1D [2, 7] | selectivity α1B vs α1D [3] | Kd [3] | Log KD α1A [1, 4] | selectivity α1A vs 1D [1] | selectivity α1A vs α1B [1] | Kd [1, 9] | Kd [2, 10] | further results
6 | CC(C)(C)NCC(O)COc1cccc2[nH]c(=O)[nH]c12 (stereo not drawn) [CGP12177] | 8.7 fold | >14 fold | >1.6 fold |  |  |  |  |  | 7.24 µM | 63.1 µM | IC50 [3]: > 100 µM
7 | Cn1cc(C(F)(F)F)nc1-c1ccc(OCC(O)CNCCOc2ccc(O)c(C(N)=O)c2)cc1 (stereo not drawn) [CGP20712A] |  | >8.5 fold | >9.1 fold |  |  |  |  |  | 11.7 µM |  | Kd [2, 11]: 11 µM; Selectivity ratio α1A vs α1D [2, 7]: 1.1 fold; IC50 [3]: > 100 µM
8 | CC(C)(C)NCC(O)COc1cccc2[nH]c(=O)[nH]c12 (stereo not drawn) [CGP 12177] |  |  |  | >1.6 |  |  | 8.7 | >14 |  |  | Kd [1, 12]: 7.24 µM; Kd ([2]; Log KD α1D, log KD from 3H-prazosin whole cell binding, CHO cells, mean ± s.e.mean): 63.1 µM; Log IC50 α1B [3]: Log IC50>-4
9 | Cn1cc(C(F)(F)F)nc1-c1ccc(OCC(O)CNCCOc2ccc(O)c(C(N)=O)c2)cc1 (stereo not drawn) [CGP 20712A] |  |  |  | >9.1 |  |  | 1.1 | >8.5 |  |  | Kd [1, 12]: 11.7 µM; Kd ([2]; Log KD α1D (apparent), apparent KD: maximum concentration inhibited most but not all specific binding, IC50 from extrapolated curve): 11 µM; Log IC50 α1B [3]: Log IC50>-4
10 | CN(C)CCCN1c2ccccc2CCc2ccc(Cl)cc21 [Clomipramine] |  |  |  |  | 0.457 µM |  |  |  |  | 0.708 µM | Selectivity ratio α1A vs α1B [1]: 60 fold; Selectivity ratio α1A vs α1D [1]: 93 fold; Kd ([1]; Log KD α1A, single-component inhibition curve, given as log KD (negative), mean ± SE mean): 0.00759 µM; Selectivity ratio α1B vs α1D [3]: 1.5 fold

From PMC7327383, “The affinity and selectivity of α‐adrenoceptor antagonists, antidepressants, and antipsychotics for the human α1A, α1B, and α1D‐adrenoceptors” (Pharmacology Research & Perspectives, 2020)
